Values after ≈ are worked out from the molar mass of the structure shown. Where two headings read alike, the source gives them in different places.
How the values were obtained:
[1] = target: T1, full-length beta-Catenin (Uniprot ID P35222) (Homo sapiens, UniProt P35222); assay: Fluorescence polarization IC50 (beta-catenin / 5FAM-TCF4 10-53 competition); assay type: binding
T1 construct: 10 nM full-length beta-Catenin (Uniprot ID P35222)
T1 sequence (P35222 1-781): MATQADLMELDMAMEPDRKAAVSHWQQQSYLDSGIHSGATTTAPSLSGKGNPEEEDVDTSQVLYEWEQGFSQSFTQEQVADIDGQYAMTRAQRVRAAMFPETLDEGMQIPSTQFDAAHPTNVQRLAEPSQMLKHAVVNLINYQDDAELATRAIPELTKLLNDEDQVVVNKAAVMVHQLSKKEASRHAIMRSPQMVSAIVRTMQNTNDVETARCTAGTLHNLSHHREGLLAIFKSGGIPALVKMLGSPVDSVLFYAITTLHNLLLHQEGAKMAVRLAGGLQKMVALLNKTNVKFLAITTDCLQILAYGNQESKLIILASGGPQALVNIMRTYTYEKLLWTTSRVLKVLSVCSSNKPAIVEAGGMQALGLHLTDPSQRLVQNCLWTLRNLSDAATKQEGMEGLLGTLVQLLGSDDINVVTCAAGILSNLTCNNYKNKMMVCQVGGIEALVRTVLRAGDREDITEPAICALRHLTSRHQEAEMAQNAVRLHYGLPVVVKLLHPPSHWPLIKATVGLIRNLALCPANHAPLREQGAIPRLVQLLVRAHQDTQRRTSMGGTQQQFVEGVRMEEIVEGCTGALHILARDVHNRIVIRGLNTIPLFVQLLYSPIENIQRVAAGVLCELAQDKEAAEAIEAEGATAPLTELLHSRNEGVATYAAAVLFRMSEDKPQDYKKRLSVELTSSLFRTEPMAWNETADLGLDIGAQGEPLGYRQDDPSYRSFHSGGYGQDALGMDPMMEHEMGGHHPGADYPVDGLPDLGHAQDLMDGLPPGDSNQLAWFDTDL

[2] = CHI Log D procedure; assay type: physicochemical; details: for chromatographic logD: pH 7.4, CHI Log D
[3] = Solubility in PBS; assay type: physicochemical
How it was run: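 PBS sample ultracentrifuged; supernatant run on HPLC vs. 50 μM peptide in DMSO standard. Solubility = (PBS peak area / DMSO peak area) × 50 uM.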

| Structure (SMILES) | IC50 ([1]; read-out: beta-Catenin FP IC50) | chromatographic logD [2] | Solubility [3] | Solubility ([3]; Solubility (uM)) | IC50 ([1]; fluorescence polarization, beta-catenin, read-out: FP EC50) | CHI Log D ([2]; pH 7.4) |
| --- | --- | --- | --- | --- | --- | --- |
| CC(=O)N1CCC[C@]12CC=CCCCC1(CCCC=CCCCOC(=O)N3CC[C@@](C(=O)N[C@@H](Cc4ccc(O)cc4)C(=O)N[C@@H](Cc4csc5ccccc45)C(=O)N[C@@H](CCC(N)=O)C(N)=O)(C3)NC(=O)[C@H](Cc3ccccc3)NC(=O)[C@H](Cc3ccccc3)NC(=O)[C@H](C)NC(=O)[C@H](C)NC(=O)[C@H](CN(CC(=O)O)CC(F)(F)F)NC(=O)[C@H](CC(=O)O)NC1=O)NC(=O)[C@H](CC(C)(C)C)NC(=O)[C@H](CC(=O)O)NC2=O (stereo partly drawn) [I-989, Ac-PL3-Asp-Npg-B5-Asp-TfeGA-Ala-Ala-Phe-Phe-PyrS2-Tyr-BztA-Gln-NH2] | 87 nM | 2.1 | 10 µM (≈ 20.7 µg/mL) | – | – | – |
| CC(=O)N1CCC[C@]12CC=CCCCC1(CCCC=CCCCOC(=O)N3CC[C@@](C(=O)N[C@@H](Cc4ccccc4Cl)C(=O)N[C@@H](Cc4csc5ccccc45)C(=O)N[C@H](C(N)=O)[C@@H](C)O)(C3)NC(=O)[C@H](Cc3ccccc3)NC(=O)[C@H](Cc3ccccc3)NC(=O)[C@H](C)NC(=O)[C@H](C)NC(=O)[C@H](CN(CC(=O)O)CC(F)(F)F)NC(=O)[C@H](CC(=O)O)NC1=O)NC(=O)[C@H](CC(C)(C)C)NC(=O)[C@H](CC(=O)O)NC2=O (stereo partly drawn) [I-991, Ac-PL3-Asp-Npg-B5-Asp-TfeGA-Ala-Ala-Phe-Phe-PyrS2-2C1F-BztA-Thr-NH2] | 51 nM | 2.7 | 10 µM (≈ 20.6 µg/mL) | – | – | – |
| CC(=O)N1CCC[C@]12CC=CCCCC1(CCCC=CCCCOC(=O)N3CC[C@@](C(=O)N[C@@H](Cc4ccccc4Cl)C(=O)N[C@@H](Cc4csc5ccccc45)C(=O)N[C@@H](CCO)C(N)=O)(C3)NC(=O)[C@H](Cc3ccccc3)NC(=O)[C@H](Cc3ccccc3)NC(=O)[C@H](C)NC(=O)[C@H](C)NC(=O)[C@H](CN(CC(=O)O)CC(F)(F)F)NC(=O)[C@H](CC(=O)O)NC1=O)NC(=O)[C@H](CC(C)(C)C)NC(=O)[C@H](CC(=O)O)NC2=O (stereo partly drawn) [I-992, Ac-PL3-Asp-Npg-B5-Asp-TfeGA-Ala-Ala-Phe-Phe-PyrS2-2C1F-BztA-Hse-NH2] | 59 nM | 2.56 | – | 12 µM (≈ 24.8 µg/mL) | – | – |
| CC(=O)N1CCC[C@]12CC=CCCCC1(CCCC=CCCCCCC[C@@](C)(C(=O)N[C@@H](Cc3ccccc3Cl)C(=O)N[C@@H](Cc3csc4ccccc34)C(=O)N[C@@H](CCC(N)=O)C(N)=O)NC(=O)[C@H](CC(C)C)NC(=O)[C@H](Cc3ccccc3)NC(=O)[C@H](C)NC(=O)[C@H](C)NC(=O)[C@H](CN(CC(=O)O)CC(F)(F)F)NC(=O)[C@H](CC(=O)O)NC1=O)NC(=O)[C@H](CC(C)(C)C)NC(=O)[C@H](CC(=O)O)NC2=O (stereo partly drawn) [I-994, Ac-PL3-Asp-Npg-B5-Asp-TfeGA-Ala-Ala-Phe-Leu-S8-2C1F-BztA-Gln-NH2] | 121 nM | 3.21 | 10 µM (≈ 20.1 µg/mL) | – | – | – |
| CC(=O)N1CCC[C@]12CC=CCCCC1(CCCC=CCCCCCC[C@@](C)(C(=O)N[C@@H](Cc3ccccc3Cl)C(=O)N[C@@H](Cc3csc4ccccc34)C(=O)N[C@@H](CCC(N)=O)C(N)=O)NC(=O)[C@H](CO)NC(=O)[C@H](Cc3ccccc3)NC(=O)[C@H](C)NC(=O)[C@H](C)NC(=O)[C@H](CN(CC(=O)O)CC(F)(F)F)NC(=O)[C@H](CC(=O)O)NC1=O)NC(=O)[C@H](CC(C)(C)C)NC(=O)[C@H](CC(=O)O)NC2=O (stereo partly drawn) [I-995, Ac-PL3-Asp-Npg-B5-Asp-TfeGA-Ala-Ala-Phe-Ser-S8-2C1F-BztA-Gln-NH2] | 55 nM | 2.8 | – | 34 µM (≈ 67.6 µg/mL) | – | – |
| CC(=O)N1CCC[C@]12CC=CCCCC1(CCCC=CCCCCCC[C@@](C)(C(=O)N[C@@H](Cc3ccccc3Cl)C(=O)N[C@@H](Cc3csc4ccccc34)C(=O)N[C@@H](CCO)C(N)=O)NC(=O)[C@H](CC(C)C)NC(=O)[C@H](Cc3ccccc3)NC(=O)[C@H](C)NC(=O)[C@H](C)NC(=O)[C@H](CN(CC(=O)O)CC(F)(F)F)NC(=O)[C@H](CC(=O)O)NC1=O)NC(=O)[C@H](CC(C)(C)C)NC(=O)[C@H](CC(=O)O)NC2=O (stereo partly drawn) [I-997, Ac-PL3-Asp-Npg-B5-Asp-TfeGA-Ala-Ala-Phe-Leu-S8-2C1F-BztA-Hse-NH2] | 154 nM | 3.42 | 10 µM (≈ 19.9 µg/mL) | – | – | – |
| CC(=O)N1CCC[C@]12CC=CCCCC1(CCCC=CCCCCCC[C@@](C)(C(=O)N[C@@H](Cc3ccccc3Cl)C(=O)N[C@@H](Cc3csc4ccccc34)C(=O)N[C@@H](CCO)C(N)=O)NC(=O)[C@H](CO)NC(=O)[C@H](Cc3ccccc3)NC(=O)[C@H](C)NC(=O)[C@H](C)NC(=O)[C@H](CN(CC(=O)O)CC(F)(F)F)NC(=O)[C@H](CC(=O)O)NC1=O)NC(=O)[C@H](CC(C)(C)C)NC(=O)[C@H](CC(=O)O)NC2=O (stereo partly drawn) [I-998, Ac-PL3-Asp-Npg-B5-Asp-TfeGA-Ala-Ala-Phe-Ser-S8-2C1F-BztA-Hse-NH2] | 127 nM | – | 43 µM (≈ 84.3 µg/mL) | – | 127 nM | 2.87 |
| CC(=O)N1CCC[C@]12CC=CCCCC1(CCCC=CCCCOC(=O)N3CC[C@@](C(=O)N[C@@H](Cc4ccccc4Cl)C(=O)N[C@@H](Cc4csc5ccccc45)C(=O)N[C@@H](CCC(N)=O)C(N)=O)(C3)NC(=O)[C@H](CC(N)=O)NC(=O)[C@H](Cc3ccccc3)NC(=O)[C@H](Cc3ccccc3)NC(=O)[C@H](C)NC(=O)[C@H](CN(CC(=O)O)CC(F)(F)F)NC(=O)[C@H](CC(=O)O)NC1=O)NC(=O)[C@H](CC(C)(C)C)NC(=O)[C@H](CC(=O)O)NC2=O (stereo partly drawn) [I-1003, Ac-PL3-Asp-Npg-B5-Asp-TfeGA-Ala-Phe-Phe-Asn-PyrS2-2C1F-BztA-Gln-NH2] | 38 nM | 2.54 | 10 µM (≈ 21.3 µg/mL) | – | – | – |
| CC[C@H](C)[C@@H]1NC(=O)[C@H](C)NC(=O)[C@H](CN(CC(=O)O)CC(F)(F)F)NC(=O)[C@H](CC(=O)O)NC(=O)C2(CCCC=CCCCOC(=O)N3CC[C@@](C(=O)N[C@@H](Cc4ccccc4Cl)C(=O)N[C@@H](Cc4csc5ccccc45)C(=O)N[C@@H](CCC(N)=O)C(N)=O)(C3)NC(=O)[C@H](CC(N)=O)NC(=O)[C@H](Cc3ccccc3)NC1=O)CCCC=CC[C@]1(CCCN1C(C)=O)C(=O)N[C@@H](CC(=O)O)C(=O)N[C@@H](CC(C)(C)C)C(=O)N2 (stereo partly drawn) [I-1005, Ac-PL3-Asp-Npg-B5-Asp-TfeGA-Ala-Ile-Phe-Asn-PyrS2-2C1F-BztA-Gln-NH2] | 42 nM | 2.64 | 10 µM (≈ 21 µg/mL) | – | – | – |
| CC(=O)N1CCC[C@]12CC=CCCCC1(CCCC=CCCCOC(=O)N3CC[C@@](C(=O)N[C@@H](Cc4ccccc4Cl)C(=O)N[C@@H](Cc4csc5ccccc45)C(=O)N[C@@H](CO)C(N)=O)(C3)NC(=O)[C@H](CO)NC(=O)[C@H](Cc3ccccc3)NC(=O)[C@H](C)NC(=O)[C@H](C)NC(=O)[C@H](CC(N)=O)NC(=O)[C@H](CC(=O)O)NC1=O)NC(=O)[C@H](CC(C)(C)C)NC(=O)[C@H](CC(=O)O)NC2=O (stereo partly drawn) [I-1020, Ac-PL3-Asp-Npg-B5-Asp-Asn-Ala-Ala-Phe-Ser-PyrS2-2C1F-BztA-Ser-NH2] | 52 nM | 2.49 | 10 µM (≈ 18.8 µg/mL) | – | – | – |
| CC(=O)N1CCC[C@]12CC=CCCCC1(CCCC=CCCCOC(=O)N3CC[C@@](C(=O)N[C@@H](Cc4ccccc4F)C(=O)N[C@@H](Cc4csc5ccccc45)C(=O)N[C@@H](CO)C(N)=O)(C3)NC(=O)[C@H]([C@@H](C)O)NC(=O)[C@H](Cc3ccccc3)NC(=O)[C@H](C)NC(=O)[C@H](C)NC(=O)[C@H](CC(N)=O)NC(=O)[C@H](CC(=O)O)NC1=O)NC(=O)[C@H](CC(C)(C)C)NC(=O)[C@H](CC(=O)O)NC2=O (stereo partly drawn) [I-1024, Ac-PL3-Asp-Npg-B5-Asp-Asn-Ala-Ala-Phe-Thr-PyrS2-2FF-BztA-Ser-NH2] | 43 nM | 2.45 | – | 14 µM (≈ 26.3 µg/mL) | – | – |
| CC(=O)N1CCC[C@]12CC=CCCCC1(CCCC=CCCCOC(=O)N3CC[C@@](C(=O)N[C@@H](Cc4ccccc4Cl)C(=O)N[C@@H](Cc4csc5ccccc45)C(=O)N[C@@H](C(N)=O)[C@H](C)O)(C3)NC(=O)[C@H](Cc3ccccc3)NC(=O)[C@H](Cc3ccccc3)NC(=O)[C@H](C)NC(=O)[C@H](C)NC(=O)[C@H](CCC(=O)O)NC(=O)[C@H](CC(=O)O)NC1=O)NC(=O)[C@H](CC(C)(C)C)NC(=O)[C@H](CC(=O)O)NC2=O (stereo partly drawn) [I-1038, Ac-PL3-Asp-Npg-B5-Asp-Glu-Ala-Ala-Phe-Phe-PyrS2-2C1F-BztA-dThr-NH2] | 101 nM | 2.73 | 10 µM (≈ 19.7 µg/mL) | – | – | – |
| CC(=O)N1CCC[C@]12CC=CCCCC1(CCCC=CCCCOC(=O)N3CC[C@@](C(=O)N[C@@H](Cc4ccccc4Cl)C(=O)N[C@@H](Cc4csc5ccccc45)C(=O)N[C@@H](C(N)=O)[C@H](C)O)(C3)NC(=O)[C@H](CC(C)C)NC(=O)[C@H](Cc3ccccc3)NC(=O)[C@H](C)NC(=O)[C@H](C)NC(=O)[C@H](CCC(=O)O)NC(=O)[C@H](CC(=O)O)NC1=O)NC(=O)[C@H](CC(C)(C)C)NC(=O)[C@H](CC(=O)O)NC2=O (stereo partly drawn) [I-1039, Ac-PL3-Asp-Npg-B5-Asp-Glu-Ala-Ala-Phe-Leu-PyrS2-2C1F-BztA-dThr-NH2] | 57 nM | 2.65 | – | 20 µM (≈ 38.7 µg/mL) | – | – |
